Reference: US20080176889A1, “9-anilinoacridine alkylating agents” (priority 2004, published 2008)
Where a name gives a salt, the structure may show the parent alone. Read-outs that look alike come from different tables or passages of the source.

Assays:
CCRF-CEM/VBL = experiment: XTT cytotoxicity assay, vinblastine-resistant subline; format: cell-based, human; details: for IC50: Homo sapiens, CCRF-CEM, XTT, 72 hours incubation, read-out: IC50 CCRF-CEM/VBL; for folds of resistance CCRF-CEM/VBL vs CCRF-CEM parent cells: number in bracket, ratio of IC50's
Description: (§1) The effects of the compounds on cell growth were determined in all human tumor cells (i.e. T-cell acute lymphocytic leukemia CCRF-CEM), in a 72 h incubation, by XTT-tetrazolium assay, as described by Scudiero et al., Cancer Res. 1988, 48, 4827-4833. After the addition of phenazine methosulfate-XTT solution at 37° C. for 6 h, absorbance at 450 and 630 nm was detected on a microplate reader (EL 340; Bio-Tek Instruments Inc., Winooski, Vt.). Six to seven concentrations of each compound were used. The IC50 and dose-effect relationships of the compounds for antitumor activity were calculated by a median-effect plot (see, e.g., Chou et al. Adv. Enzyme Regul. 1984, 22, 27-55) using a computer program on an IBM-PC workstation (see, e.g., Chou et al. Dose-Effect Analysis with Microcomputers: Quantitation of ED50, LD50, Synergism, Antagonism, Low-Dose Risk, Receptor-Ligands Binding and Enzyme Kinetics; Biosoft: Cambridge, U.K., 1987).
(§2) Data summarizing the growth inhibition of human lymphoblastic leukemic cells (CCRF-CEM) and its drug-resistant sublines (resistant to vinblastine and taxol, CCRF-CEM/VBL and CCRF-CEM/taxol, respectively) by compound 37 is shown in Table 4.

[1] = tested on: human lymphoblastic leukemic cells (CCRF-CEM); experiment: XTT-tetrazolium cytotoxicity assay, CCRF-CEM; format: cell-based
Description: as §1

CCRF-CEM/Taxol = experiment: XTT cytotoxicity assay, taxol-resistant subline; format: cell-based, human; details: for IC50: Homo sapiens, CCRF-CEM, XTT, 72 hours incubation, read-out: IC50 CCRF-CEM/Taxol; for folds of resistance CCRF-CEM/Taxol vs CCRF-CEM parent cells: number in bracket, ratio of IC50's
Description: as §1, §2

A549 = experiment: SRB cytotoxicity assay, solid tumor cells A549; format: cell-based, human; details: for IC50: Homo sapiens, A549, SRB
HCT-116 = experiment: SRB cytotoxicity assay, solid tumor cells HCT-116; format: cell-based; details: Homo sapiens, HCT-116; SRB, 72 hours incubation; read-out: IC50 HCT-116
Topo II = experiment: Topo II-mediated relaxation of pRYG-DNA; format: biochemical
[2] = Homo sapiens, Table 4, XTT, 72 hours incubation, read-out: IC50 CCRF-CEM
[3] = 72 hours incubation, read-out: IC50 A549
[4] = incubation for 3 hours, washed, then incubated for a total of 72 hours (footnote b), read-out: IC50 A549 after washing
[5] = Table 1, Type 1 compounds, 72 h incubation, XTT
[6] = Table 2, Type 2 compounds, 72 h incubation, XTT

Cc1cccc2c(Nc3ccc(OCCN(CCCl)CCCl)cc3)c3cccc(C(=O)NCCN(C)C)c3nc12 (as salt: salt) [Compound 44, 9-(4-{2-[Bis(2-chloroethyl)amino]ethoxy}phenylamino)-5-methylacridin-4-carboxylic acid (2-dimethylaminoethyl)amide]
melting point: 185 to 186 °C

Nc1cc(CO)cc(Nc2c3ccccc3nc3ccccc23)c1 [AHMA, 3-(9-acridinylamino)-5-hydroxymethylaniline]
IC50 (CCRF-CEM/VBL): 1600 nM
folds of resistance CCRF-CEM/VBL vs CCRF-CEM parent cells (CCRF-CEM/VBL): 2.1 ×
IC50 ([1]; Homo sapiens, Table 1, Type 1 compounds, 72 h incubation, XTT, read-out: IC50): 753 nM
IC50 [1, 2]: 753 ± 378 nM
IC50 (CCRF-CEM/Taxol): 600 ± 74 nM
folds of resistance CCRF-CEM/Taxol vs CCRF-CEM parent cells (CCRF-CEM/Taxol): 0.8 ×
IC50 (A549; [3]): 47 nM
IC50 (A549; [4]): 550 nM
reduction of potency when drug washed away (A549; similar conditions, drug washed away): about 12 fold

ClCCN(CCCl)CCOc1cccc(Nc2c3ccccc3nc3ccccc23)c1 [Compound 38, Acridin-9-yl-(3-{2-[bis(2-chloroethyl)amino]ethoxy}phenyl)amine]
IC50 ([1]; Homo sapiens, 72 h): 95 nM

ClCCN(CCCl)CCCCOc1cccc(Nc2c3ccccc3nc3ccccc23)c1 [Compound 39, Acridin-9-yl-(3-{4-[bis(2-chloroethyl)amino]butoxy}phenyl)amine]
IC50 ([1]; Homo sapiens, 72 h): 456 nM

ClCCN(CCCl)CCOc1ccc(Nc2c3ccccc3nc3ccccc23)cc1 [Compound 40, Acridin-9-yl-(4-{2-[bis(2-chloroethyl)amino]ethoxy}phenyl)amine]
IC50 ([1]; Homo sapiens, 72 h): 20 nM

ClCCN(CCCl)CCCCOc1ccc(Nc2c3ccccc3nc3ccccc23)cc1 [Compound 41, Acridin-9-yl-(4-{4-[bis(2-chloroethyl)amino]buoxy}phenyl)amine]
IC50 ([1]; Homo sapiens, 72 h): 61 nM

Cc1cccc2c(Nc3cccc(OCCN(CCCl)CCCl)c3)c3cccc(C(=O)NCCN(C)C)c3nc12 [Compound 42, 9-(3-{2-[Bis(2-chloroethyl)amino]ethoxy}phenylamino)-5-methylacridin-4-carboxylic acid (2-dimethylaminoethyl)amide]
IC50 [1, 5]: 3 nM

Cc1cccc2c(Nc3cccc(OCCCCN(CCCl)CCCl)c3)c3cccc(C(=O)NCCN(C)C)c3nc12 [Compound 43, 9-(3-{4-[Bis(2-chloroethyl)amino]butoxy}phenylamino)-5-methylacridin-4-carboxylic acid (2-dimethylaminoethyl)amide]
IC50 [1, 5]: 23.5 nM

Cc1cccc2c(Nc3ccc(OCCN(CCCl)CCCl)cc3)c3cccc(C(=O)NCCN(C)C)c3nc12 [Compound 44, 9-(4-{2-[Bis(2-chloroethyl)amino]ethoxy}phenylamino)-5-methylacridin-4-carboxylic acid (2-dimethylaminoethyl)amide]
IC50 [1, 5]: 773 nM

Cc1cccc2c(Nc3ccc(OCCCCN(CCCl)CCCl)cc3)c3cccc(C(=O)NCCN(C)C)c3nc12 [Compound 45, 9-(4-{4-[Bis(2-chloroethyl)amino]butoxy}phenylamino)-5-methylacridin-4-carboxylic acid (2-dimethylaminoethyl)amide]
IC50 [1, 5]: 23 nM

ClCCN(CCCl)Cc1cccc(Nc2c3ccccc3nc3ccccc23)c1 [Compound 46, Acridin-9-yl-(3-{[bis-(2-chloroethyl)amino]methyl}phenyl)amine]
IC50 [1, 5]: 7.4 nM

ClCCN(CCCl)Cc1ccc(Nc2c3ccccc3nc3ccccc23)cc1 [Compound 47, Acridin-9-yl-(4-{[bis(2-chloroethyl)amino]methyl}phenyl)amine]
IC50 [1, 5]: 30 nM

Cc1cccc2c(Nc3cccc(CN(CCCl)CCCl)c3)c3cccc(C(=O)NCCN(C)C)c3nc12 [Compound 48, 9-(3-{[Bis(2-chloroethyl)amino]methyl}phenylamino)-5-methylacridine-4-carboxylic acid (2-dimethylaminoethyl)amide]
IC50 [1, 5]: 1.7 nM

Cc1cccc2c(Nc3ccc(CN(CCCl)CCCl)cc3)c3cccc(C(=O)NCCN(C)C)c3nc12 [Compound 49, 9-(4-{[Bis(2-chloroethyl)amino]methyl}phenylamino)-5-methylacridin-4-carboxylic acid (2-dimethylaminoethyl)amide]
IC50 [1, 5]: 8.1 nM

Nc1cc(CO)cc(Nc2c3ccccc3nc3c(OCCN(CCCl)CCCl)cccc23)c1 [Compound 50, [3-Amino-5-(4-{2-[bis(2-chloroethyl)amino]ethoxy}acridin-9-ylamino)phenyl]methanol]
IC50 [1, 6]: 7.2 nM

CCOC(=O)Nc1cc(CO)cc(Nc2c3ccccc3nc3c(OCCN(CCCl)CCCl)cccc23)c1 [Compound 51]
IC50 [1, 6]: 26 nM

Nc1cc(CO)cc(Nc2c3ccccc3nc3c(OCCCCN(CCCl)CCCl)cccc23)c1 [Compound 52, [3-Amino-5-(4-{4-[bis-(2-chloroethyl)amino]butoxy}acridin-9-ylamino)phenyl]-methanol]
IC50 [1, 6]: 4.6 nM

OCc1cc(O)cc(Nc2c3ccccc3nc3c(OCCN(CCCl)CCCl)cccc23)c1 [Compound 53, 3-(4-{2-[Bis-(2-chloroethyl)amino]ethoxy}acridin-9-ylamino)-5-hydroxymethylphenol]
IC50 [1, 6]: 6.1 nM

ClCCN(CCCl)CCOc1cccc(Nc2c3ccccc3nc3c(OCCN(CCCl)CCCl)cccc23)c1 [Compound 54, (4-{2-[Bis-(2-chloroethyl)amino]ethoxy}acridin-9-yl)-(3-{2-[bis(2-chloroethyl)-amino]ethoxy}phenyl)amine]
IC50 ([1]; Homo sapiens, 72 h): 18.6 nM

ClCCN(CCCl)CCCCOc1cccc(Nc2c3ccccc3nc3c(OCCN(CCCl)CCCl)cccc23)c1 [Compound 55]
IC50 ([1]; Homo sapiens, 72 h): 6 nM

ClCCN(CCCl)CCOc1ccc(Nc2c3ccccc3nc3c(OCCN(CCCl)CCCl)cccc23)cc1 [Compound 56, (4-[2-[Bis(2-chloroethyl)amino]ethoxy]acridin-9-yl)-(4-{2-[bis(2-chloroethyl)amino]-ethoxy}phenyl)amine]
IC50 ([1]; Homo sapiens, 72 h): 17.3 nM

ClCCN(CCCl)CCCCOc1cccc(Nc2c3ccccc3nc3c(OCCN(CCCl)CCCl)cccc23)c1 [Compound 58]
IC50 ([1]; Table 3, Type 3 compounds, 72 h incubation, XTT, read-out: IC50): 25 nM

CC(=O)O[C@H]1C(=O)[C@@]2(C)[C@H]([C@H](OC(=O)c3ccccc3)[C@]3(O)C[C@H](OC(=O)[C@H](O)[C@@H](NC(=O)c4ccccc4)c4ccccc4)C(C)=C1C3(C)C)[C@]1(OC(C)=O)CO[C@@H]1C[C@@H]2O [Taxol]
IC50 (CCRF-CEM/VBL): 1620 nM
folds of resistance CCRF-CEM/VBL vs CCRF-CEM parent cells (CCRF-CEM/VBL): 1080 ×
IC50 [1, 2]: 1.5 ± 0.5 nM
IC50 (HCT-116): 1.3 nM
IC50 (CCRF-CEM/Taxol): 143 ± 7 nM
folds of resistance CCRF-CEM/Taxol vs CCRF-CEM parent cells (CCRF-CEM/Taxol): 95.3 ×
IC50 (A549; [3]): 1.9 nM
IC50 (A549; [4]): 390 nM

COc1cc([C@@H]2c3cc4c(cc3[C@@H](O[C@@H]3O[C@@H]5CO[C@@H](C)O[C@H]5[C@H](O)[C@H]3O)[C@H]3COC(=O)[C@H]23)OCO4)cc(OC)c1O [VP-16]
Topo II-mediated relaxation of pRYG-DNA (Topo II): inhibited DNA relaxation

CC[C@]1(O)C[C@@H]2CN(CCc3c([nH]c4ccccc34)[C@@](C(=O)OC)(c3cc4c(cc3OC)N(C)[C@H]3[C@@](O)(C(=O)OC)[C@H](OC(C)=O)[C@]5(CC)C=CCN6CC[C@]43[C@@H]65)C2)C1 [Vinblastine]
IC50 (CCRF-CEM/VBL): 540 nM
folds of resistance CCRF-CEM/VBL vs CCRF-CEM parent cells (CCRF-CEM/VBL): 450 ×
IC50 [1, 2]: 1.2 nM
IC50 (HCT-116): 1.4 nM
IC50 (CCRF-CEM/Taxol): 29 nM
folds of resistance CCRF-CEM/Taxol vs CCRF-CEM parent cells (CCRF-CEM/Taxol): 24.2 ×
IC50 (A549; [3]): 8.1 nM
IC50 (A549; [4]): 95 nM

AHMA-tert-butylcarbamate
Topo II-mediated relaxation of pRYG-DNA (Topo II): inhibited DNA relaxation
